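Results reflect a 48-hour exposure of cells in 96-well plates to compound at five concentrations. The concentration for 50% growth inhibition is given as GI50.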 The source made the active and inactive calls. Rule as the data show it: active = GI50 up to about 1.1 µM and inactive = higher.
Columns and labels:
Experiment in all cases: DTP human tumour cell line panel, 48 h
U-251 = test system: U-251
MDA-MB-231 = test system: MDA-MB-231
SK-MEL-28 = test system: SK-MEL-28
CCRF-CEM = test system: CCRF-CEM
UACC-257 = test system: UACC-257
UACC-62 = test system: UACC-62
SF-539 = test system: SF-539
CAKI-1 = test system: CAKI-1
786-0 = test system: 786-0
RXF 393 = test system: RXF 393
MDA-N = test system: MDA-N
SR = test system: SR
SK-MEL-2 = test system: SK-MEL-2
COLO 205 = test system: COLO 205
BT-549 = test system: BT-549
HT-29 = test system: HT-29
OVCAR-3 = test system: OVCAR-3
Hs-578T = test system: Hs-578T
SK-MEL-5 = test system: SK-MEL-5
SW-620 = test system: SW-620
HCT-15 = test system: HCT-15
OVCAR-5 = test system: OVCAR-5
NCI-H460 = test system: NCI-H460
SNB-75 = test system: SNB-75
OVCAR-4 = test system: OVCAR-4
K562 = test system: K562
HCC 2998 = test system: HCC 2998
LOX IMVI = test system: LOX IMVI
TK-10 = test system: TK-10
M14 = test system: M14
T47D = test system: T47D
HL-60 = test system: HL-60
HOP-62 = test system: HOP-62
DU-145 = test system: DU-145
A549 = test system: A549
PC-3 = test system: PC-3
SN12C = test system: SN12C
HCT-116 = test system: HCT-116
KM12 = test system: KM12
SK-OV-3 = test system: SK-OV-3
SF-295 = test system: SF-295
OVCAR-8 = test system: OVCAR-8
A498 = test system: A498
IGROV-1 = test system: IGROV-1
HOP-92 = test system: HOP-92
NCI-H23 = test system: NCI-H23
MCF7 = test system: MCF7
MDA-MB-435 = test system: MDA-MB-435
NCI/ADR-RES = test system: NCI/ADR-RES
SNB-19 = test system: SNB-19
NCI-H226 = test system: NCI-H226
RPMI-8226 = test system: RPMI-8226
NCI-H522 = test system: NCI-H522
UO-31 = test system: UO-31
MOLT-4 = test system: MOLT-4
ACHN = test system: ACHN
SF-268 = test system: SF-268
Malme-3M = test system: Malme-3M

Measured: GI50

Cc1ccc(C2SCC(=O)N2c2ccc(-n3c(-c4ccccc4)nc4ccccc4c3=O)cc2)cc1 (stereo not drawn)
6.65 µM: HCT-15
inactive: U-251 5.3 µM | MDA-MB-231 4.84 µM | SK-MEL-28 21 µM | CCRF-CEM 8.18 µM | UACC-257 24.9 µM | UACC-62 11.5 µM | SF-539 12.4 µM | CAKI-1 30.1 µM | 786-0 18.7 µM | RXF 393 22.8 µM | MDA-N 20.9 µM | SR 7.89 µM | SK-MEL-2 20.8 µM | COLO 205 30.1 µM | BT-549 20.2 µM | HT-29 17.2 µM | OVCAR-3 13.2 µM | Hs-578T 10 µM | SK-MEL-5 11.6 µM | SW-620 34.6 µM | OVCAR-5 42.4 µM | NCI-H460 9.42 µM | SNB-75 18.3 µM | OVCAR-4 22.8 µM | K562 7.26 µM | HCC 2998 17.5 µM | LOX IMVI 9.98 µM | TK-10 50.9 µM | M14 23.3 µM | T47D 15.5 µM | HL-60 19.5 µM | HOP-62 12.9 µM | DU-145 31 µM | A549 25.1 µM | PC-3 12.7 µM | SN12C 37.8 µM | HCT-116 7.82 µM | KM12 16.6 µM | SK-OV-3 4.95 µM | SF-295 14.7 µM | OVCAR-8 16.2 µM | A498 26.1 µM | IGROV-1 20.5 µM | HOP-92 15.2 µM | NCI-H23 36.4 µM | MCF7 22.6 µM | MDA-MB-435 21.1 µM | NCI/ADR-RES 19.3 µM | SNB-19 26.9 µM | NCI-H226 18.5 µM | RPMI-8226 13.7 µM | NCI-H522 13.5 µM | UO-31 16.2 µM | MOLT-4 7.1 µM | ACHN 16.6 µM | SF-268 24.2 µM | Malme-3M 22 µM
